Experimental data reported in ChEMBL document CHEMBL1201862, “PubChem BioAssay data set” (2004).
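Assay format: 96-well plates, 48-hour exposure. The concentration for 50% growth inhibition is given as GI50.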 The source made the active and inactive calls. No stated cut-off is given here; in the data, active = GI50 up to about 1.1 µM and inactive = higher.

Legend:
Test in all cases: inhibition of tumour cell growth, NCI panel, 48 h
MOLT-4 = system: MOLT-4
SN12C = system: SN12C
HOP-62 = system: HOP-62
IGROV-1 = system: IGROV-1
PC-3 = system: PC-3
SW-620 = system: SW-620
Malme-3M = system: Malme-3M
HCT-116 = system: HCT-116
A549 = system: A549
K562 = system: K562
SF-539 = system: SF-539
Hs-578T = system: Hs-578T
HCC 2998 = system: HCC 2998
RXF 393 = system: RXF 393
NCI-H460 = system: NCI-H460
NCI-H23 = system: NCI-H23
SF-268 = system: SF-268
KM12 = system: KM12
EKVX = system: EKVX
MDA-MB-231 = system: MDA-MB-231

Measured: GI50

NCc1ccccc1.O=C(O)NCc1ccccc1
inactive: MOLT-4 18.8 µM | SN12C 31.8 µM | HOP-62 38 µM | IGROV-1 26.1 µM | PC-3 20.8 µM | SW-620 34.8 µM | Malme-3M 27.4 µM | HCT-116 25.1 µM | A549 34.9 µM | K562 24.3 µM | SF-539 41.1 µM | Hs-578T 26.1 µM | HCC 2998 22.5 µM | RXF 393 38.5 µM | NCI-H460 26.5 µM | NCI-H23 27.5 µM | SF-268 39.7 µM | KM12 26.2 µM | EKVX 30.6 µM | MDA-MB-231 10.3 µM

CN(C)c1ccc(Cc2cc3c(O)ccc(O)c3cc(Cc3ccc(N(C)C)cc3)c2=O)cc1
inactive: MOLT-4 2.92 µM | SN12C 28.2 µM | HOP-62 45.7 µM | IGROV-1 16.1 µM | PC-3 15.4 µM | SW-620 13.6 µM | Malme-3M 20.3 µM | HCT-116 11.7 µM | A549 30.5 µM | K562 2.96 µM | SF-539 26.1 µM | Hs-578T 44.3 µM | HCC 2998 23 µM | RXF 393 9.31 µM | NCI-H460 37.4 µM | NCI-H23 22.4 µM | SF-268 29.6 µM | KM12 18.6 µM | EKVX 19 µM | MDA-MB-231 20.1 µM

Cc1cn([C@@H]2C[C@@H]2CO)c(=O)[nH]c1=O
inactive: MOLT-4 > 100 µM | SN12C > 100 µM | HOP-62 > 100 µM | IGROV-1 > 100 µM | PC-3 > 100 µM | SW-620 > 100 µM | Malme-3M > 100 µM | HCT-116 > 100 µM | A549 > 100 µM | K562 > 100 µM | SF-539 > 100 µM | Hs-578T > 100 µM | HCC 2998 > 100 µM | RXF 393 > 100 µM | NCI-H460 > 100 µM | NCI-H23 > 100 µM | SF-268 > 100 µM | KM12 > 100 µM | EKVX > 100 µM | MDA-MB-231 > 100 µM

Cc1ccc(CC(=O)Nc2ccc(NC(=O)CNC(=O)/C=C/c3ccc(-c4ccccc4)cc3)cc2C(=O)c2ccccc2)cc1
inactive: MOLT-4 3.5 µM | SN12C 2.74 µM | HOP-62 2.55 µM | IGROV-1 8.24 µM | PC-3 1.98 µM | SW-620 4.75 µM | Malme-3M 2.99 µM | HCT-116 1.36 µM | A549 2.03 µM | K562 3.33 µM | SF-539 2.7 µM | Hs-578T 4.71 µM | HCC 2998 1.67 µM | RXF 393 2.38 µM | NCI-H460 2.86 µM | NCI-H23 2.06 µM | SF-268 2.45 µM | KM12 3.56 µM | EKVX 3.47 µM | MDA-MB-231 2.62 µM

O=C1OC2C(O)COC2(O)C1(O)C(C[N+](=O)[O-])c1ccc(Cl)cc1 (stereo not given)
inactive: MOLT-4 2.6 µM | SN12C 13.7 µM | HOP-62 20.6 µM | IGROV-1 9.38 µM | PC-3 17 µM | SW-620 2.71 µM | Malme-3M 16.3 µM | HCT-116 1.79 µM | A549 16.5 µM | K562 2.96 µM | SF-539 3.97 µM | Hs-578T 13.4 µM | HCC 2998 6.78 µM | RXF 393 3.29 µM | NCI-H460 13.7 µM | NCI-H23 6.95 µM | SF-268 9.79 µM | KM12 7.36 µM | EKVX 23.6 µM | MDA-MB-231 30.2 µM

Nc1nc(Cl)cc(NCC2(CO)CC(CCCCc3ccccc3)C2)n1 (stereo not given)
inactive: MOLT-4 3.36 µM | SN12C > 100 µM | HOP-62 99.8 µM | IGROV-1 > 100 µM | PC-3 46.1 µM | SW-620 78.7 µM | Malme-3M 16.3 µM | HCT-116 29 µM | A549 16.1 µM | K562 2.23 µM | SF-539 > 100 µM | Hs-578T 70.6 µM | HCC 2998 37.7 µM | RXF 393 34.6 µM | NCI-H460 40.8 µM | NCI-H23 21.8 µM | SF-268 > 100 µM | KM12 65 µM | EKVX > 100 µM | MDA-MB-231 30.6 µM

CCCCNC1CCC2(SCCS2)c2[nH]c3ccccc3c21 (stereo not given)
inactive: MOLT-4 3.97 µM | SN12C 37.7 µM | HOP-62 > 53.8 µM | IGROV-1 25.4 µM | PC-3 7.46 µM | SW-620 25.8 µM | Malme-3M 16.5 µM | HCT-116 7.4 µM | A549 56.9 µM | K562 10.1 µM | SF-539 13.7 µM | Hs-578T 29.8 µM | HCC 2998 18.9 µM | RXF 393 21 µM | NCI-H460 33.3 µM | NCI-H23 32 µM | SF-268 19.9 µM | KM12 6.37 µM | EKVX 37.2 µM | MDA-MB-231 16.6 µM
